# Laboratory results taken from article PMC11796317, “Fragment Discovery by X‐Ray Crystallographic Screening Targeting the CTP Binding Site of Pseudomonas Aeruginosa IspD” (Angewandte Chemie (International Ed. in English), 2025).
# B1: PaIspD (Pseudomonas aeruginosa PAO1) (protein)
# chain: MTTSDLPAFWTVIPAAGVGSRMRADRPKQYLDLAGRTVIERTLDCFLEHPMLRGLVVCLAEDDPYWPGLDCAASRHVQRAAGGAERAGSVLNGLLRLLELGAQADDWVLVHDAARPNLTRGDLDRLLEELAEDPVGGLLAVPARDTLKRSDRDGRVSETIDRSVVWLAYTPQMFRLGALHRALADALVAGVAITDEASAMEWAGYAPKLVEGRADNLKITTPEDLLRLQRSFPH
# notes: His6 (N, cleaved yes); made in house; host or cells: Escherichia coli BL21 (DE3), pET28
# Columns and labels:
# [1] = molecular target: T1, PaIspD (Pseudomonas aeruginosa, UniProt P57707); test: Determination of enzyme kinetics (Michaelis constants of substrates, LC-MS); assay type: biochemical; settings: substrate of PaIspD; 50 nM PaIspD, 37 °C, 40 minutes
# T1 construct: His6 (N, cleaved yes); made in house; host or cells: Escherichia coli BL21 (DE3), pET28
# T1 sequence (P57707 1-234): B1 chain
# Method: (§1) Determination of enzyme kinetics
# (§2) Table S1. Michaelis constants for MEP and CTP of PaIspD.
# (§3) Substrate Km (mM) Vmax (AU/min-1)
# (§4) Determination of enzyme kinetics. The assay was conducted as published before. To determine the Km values for CTP and MEP with PaIspD, substrate concentrations (0.016–2 mM) were prepared in a 96-well plate. Each well contained 100 μL of reaction mix with Buffer A (100 mM Tris-HCl pH 7.6, 1 mM DTT, 1 mM MgCl2) and 50 nM PaIspD. Serial dilutions of CTP or MEP were performed, and reactions were initiated by adding Buffer B (100 mM Tris-HCl pH 7.6, 1 mM DTT, 1 mM MEP or CTP). Plates were incubated at 37 °C for 40 minutes, denatured at 95 °C for 5 minutes, and centrifuged at 4000 rpm at 4 °C. Supernatants (10 μL) were mixed with an 190 μL ice-cold 3:1:1 ACN, isopropanol, water mixture containing 100 nM 4-methyl-1-oxo-1-(p-tolylamino)pentane-2-sulfonic acid, adenylyl-imidodiphosphate and adenosine-5′- [(α,β)-methyleno]triphosphate as internal standard. After centrifugation at 4000 rpm at 4 °C for 5 min, a 50 μL aliquot was transferred to an LC-MS plate for analysis. Peak areas were used to calculate Michaelis–Menten kinetics using GraphPad Prism v9. Measurements were done in duplicates and repeated in two independent experiments.
# Figure S1: Kinetic parameters of PaIspD substrates (MEP, left and CTP, right). Each data point reflects the mean ± SD obtained from two-independent […]
# [2] = molecular target: T1, PaIspD; test: Microscale thermophoresis (MST) with dyed PaIspD; assay type: binding
# Method: The microscale thermophoresis (MST) (Serial no. 201709-BR-N024, Monolith NT.115 Micro Scale Thermophoresis, NanoTemper Technologies GmbH.) was performed using dyed PaIspD, labeled according to the standard protocol from the manufacturer NanoTemper Technologies GmbH Protein Labeling Kit Red-NHS, 2nd Generation. A 2 mM ligand solution containing 10% DMSO was prepared (Solution I). A 200 µl solution of 10% DMSO containing buffer solution was prepared (Solution II). The buffer used was HEPES (50 mM), MgCl2 (5 mM) and Tween (0.05%) at pH 7.6 for all compounds. To PCR tubes 2-16, 10 µl of solution II was added. To tube 1, 20 µl of solution I was added. 10 µl from tube 1 was add to tube 2 and mixed. This was continued until tube 16. To each tube, 10 µL of the protein dye mixture was added and mixed. The mixture was allowed to incubate at room temperature for 5 minutes. Non-hydrophobic capillary tubes were used for measurement. Each sample was measured and analyzed in MO Control version 1.6.
# [3] = molecular target: T1, PaIspD; test: Fluorescence quenching (PaIspD); assay type: binding
# Method: Fluorescence quenching (PaIspD)
# Quenching is expressed as (I0 – I) / I0 with I0 the intensity (at 332 nm) of fluorescence in absence of compound and I the intensity of fluorescence upon addition of compound. Inset, fluorescence emission spectra in the presence of increasing concentrations of compound. The concentration of PaIspD was kept at 2 µM during the assay, the compounds were tested in concentration ranges given below. The excitation wavelength was set at 286 nm, emission spectra were recorded between 300 nm and 380 nm. The data were fitted using Qtiplot software (qtiplot.com). A least square fit to a simple bimolecular equilibrium was used to estimate the Kd values. Each measurement was reproduced two times. The measurements were carried out in the following buffer: 50 mM Tris-Cl pH = 8, 50 mM NaCl, 1mM MgCl2.
# Table S1. Concentration ranges used to determine Kd during the Fluorescence quenching assay.
# [4] = molecular target: T1, PaIspD; test: 1H-STD NMR and competition STD NMR with CTP; assay type: binding
# From the text: To further validate the occurrence of interactions taking place between the fragment and PaIspD, we referred to ^1H‐STD NMR spectroscopy, a commonly used technique for this purpose.[10, 11] We conducted this experiment in a HEPES buffer in D2O with a 100‐fold excess of 2 compared to PaIspD. In the corresponding difference spectrum, we identified all proton signals previously observed in the ^1H NMR spectrum of 2 (see Figure S2 and S3 in the Supporting Information). […] We further noted the magnitude of amplification of the signals as the efficiency of saturation transfer scales with distance, enabling us to gain an idea about the proximity of each proton to the protein surface.[12] Among all protons, those in position iii (Figure 4) clearly received a surplus in saturation transfer relative to the other ones, whereas the protons positioned on the pyridyl ring (i, Figure 4) and the protons in position ii (Figure 4) received both less amplification with the latter receiving the least amount (Figure 4). […]
# The 1H-STD-NMR experiment was recorded at 25 °C with 512 scans on a Bruker Avance Neo 500 MHz spectrometer with prodigy cryoprobe system. […]
# [5] = substrate: C[C@](O)(CO)[C@H](O)COP(=O)(O)O; test: Determination of enzyme kinetics (Michaelis constants of substrates, LC-MS); assay type: biochemical, Pseudomonas aeruginosa; settings: other: substrate of PaIspD, 50 nM PaIspD, 37 °C, 40 minutes, pH 7.6
# Method: as §1, §2, §3, §4
# Figure S1: Kinetic parameters of PaIspD substrates (MEP, left and CTP, right). […]
# [6] = -log KD, supplement sheet, CORRECTED VALUES
# [7] = -log KD, supplement sheet, PUBLISHED VALUES
# [8] = kd (M), supplement sheet, CORRECTED VALUES
# [9] = kd (µM), supplement sheet, CORRECTED VALUES, MST Kd
# [10] = supplement sheet, CORRECTED VALUES
# [11] = supplement sheet, PUBLISHED VALUES
# [12] = MST Kd, n=2, mean±SD, HEPES 50 mM, MgCl2 5 mM, Tween 0.05%, pH 7.6
Molecule,Km [1] [µM],Vmax [1] [AU/min-1],"Kd [2, 6] [M]","Kd [2, 7] [M]","Kd [2, 8] [M]","Kd [2, 9] [M]","LE [2, 10]","LLE [2, 11]",Kd [3] [µM],"Competition STD NMR with CTP ([4]; 1 mM 2, 10 mM CTP, 10 µM PaIspD)","1H-STD NMR interaction with PaIspD ([4]; HEPES buffer in D2O, 100-fold excess of 2 compared to PaIspD)","Kd [2, 12] [M]",Km [5] [µM]
Nc1ccn([C@@H]2O[C@H](COP(=O)(O)OP(=O)(O)OP(=O)(O)O)[C@@H](O)[C@H]2O)c(=O)n1 [CTP],200 ± 100,0.30 ± 0.01,,,,,,,,,,,
CN1Cc2cccnc2C1=O [Compound 2],,,0.000939,0.000939,0.000939,0.000939,0.377,-1.358,977 ± 59,STD signals of 2 disappeared,came into close proximity of the protein,,
CN1CCC(N2Cc3cccnc3C2=O)CC1 [Compound 3],,,0.000186,0.000186,0.000186,0.000186,0.3006,-0.7773,879 ± 64,,,0.000186 ± 7e-06,
O=C1c2ncccc2CN1Cc1ccccc1 [Compound 4],,,0.000133,0.000133,0.000133,0.000133,0.3124,-0.9699,391 ± 35,,,0.000133 ± 1.2e-05,
O=C1c2ncccc2CN1CCN1CCOCC1 [Compound 5],,,0.000491,0.000491,0.000491,0.000491,0.2518,-0.7374,,,,0.000491 ± 2e-06,
O=C1c2ncccc2CN1CCc1c[nH]c2ccccc12 [Compound 6],,,0.000208,0.000208,0.000208,0.000208,0.2402,-0.7939,332 ± 22,,,0.000208 ± 7e-06,
COC(=O)N(C)C1c2cccnc2C(=O)N1C (centres unmarked) [Compound 7],,,0.000454,0.000454,0.000454,0.000454,0.2694,-0.728,,,,0.000454 ± 2.7e-05,
CCC(=O)N(C)C1c2cccnc2C(=O)N1C (centres unmarked) [Compound 8],,,,,,,,,248 ± 15,,,,
CCC(CC)C(=O)N(C)C1c2cccnc2C(=O)N1C (centres unmarked) [Compound 9],,,0.000536,0.000536,0.000536,0.000536,0.2241,-0.9347,,,,0.000536 ± 4.7e-05,
CN(C(=O)c1ccncc1)C1c2cccnc2C(=O)N1C (centres unmarked) [Compound 10],,,0.000209,0.000209,0.000209,0.000209,0.2401,-0.6357,310 ± 28,,,0.000209 ± 4e-06,
CN(C(=O)c1ccon1)C1c2cccnc2C(=O)N1C (centres unmarked) [Compound 11],,,0.000502,0.000502,0.000502,0.000502,0.226,-0.6167,301 ± 16,,,0.000502 ± 5.6e-05,
CN1C(=O)c2ncccc2C1N(C)C(=O)N1CCOCC1 (centres unmarked) [Compound 12],,,0.000239,0.000239,0.000239,0.000239,0.2363,-0.5431,371 ± 42,,,0.000239 ± 6e-06,
"C[C@](O)(CO)[C@H](O)COP(=O)(O)O [MEP, 2‐C‐methylerythritol‐D‐erythritol‐4‐phosphate]",,0.30 ± 0.0,,,,,,,,,,,
B1,,,,,,,,,,,,,210 ± 100
